These results are taken from publication PMC6981123 (2020).

Assay [1] deals with h-TELO (DNA, G4) AGGGTTAGGGTTAGGGTTAGGG
The assay is described as follows: ITC. The conditions noted are these: 100 mM K+; 10 mM HEPES, pH 7.4, 298 K; h-TELO 5 μM in cell.

Assay [2] relates to h-TELO (dual-labeled) (DNA, G4) AGGGTTAGGGTTAGGGTTAGGG
The assay is described as follows: FRET melting. The conditions noted are these: 100 mM K+; 10 mM HEPES, pH 7.4; MG 1.5 μM (3 equiv.), DNA 0.5 μM; Tm 49 to 76 °C.

Assay [3] has as its system h-TELO (DNA, G4) AGGGTTAGGGTTAGGGTTAGGG
The assay can be described thus: fluorescence titration of MG emission. The conditions noted are these: 100 mM K+; 10 mM HEPES, pH 7.4, 25 °C; MG 10 μM, h-TELO 0-6 μM.

By Kd is commonly meant the equilibrium constant for the complex coming apart. Read a high Kd as weaker binding. As usually defined, the ΔTm is the shift of the melting midpoint relative to a reference. For `CCCCCCCCCCCCCCCCCC(=O)NCc1cn(CCCC(=O)OC[C@H]2O[C@@H](n3cnc4c(=O)[nH]c(N)nc43)[C@@H]3OC(C)(C)O[C@@H]32)nn1`, the equilibrium dissociation constant (Kd) is 4.48 µM in assay [1] and 3.2 µM in assay [3]. The ΔTm in assay [2] was found to be 27 °C.
